ChEMBL document CHEMBL1147182, “Clubbed thiazoles by MAOS: a novel approach to cyclin-dependent kinase 5/p25 inhibitors as a potential treatment for Alzheimer's disease” (Bioorg Med Chem, 2007)

How the values were obtained:
[1] = biological target: Cyclin-dependent kinase 5/CDK5 activator 1 (Homo sapiens, UniProt Q00535); assay: Inhibition of human cdk5/p25 by SPA; assay type: protein-complex assay
[2] = Cytotoxicity against VeroC1008 cells at 6.25 to 50 ug/ml by neutral red uptake assay; assay type: cell-based; settings: chlorocebus sabaeus, vero

Chain of Cyclin-dependent kinase 5/CDK5 activator 1 (Q00535 whole entry): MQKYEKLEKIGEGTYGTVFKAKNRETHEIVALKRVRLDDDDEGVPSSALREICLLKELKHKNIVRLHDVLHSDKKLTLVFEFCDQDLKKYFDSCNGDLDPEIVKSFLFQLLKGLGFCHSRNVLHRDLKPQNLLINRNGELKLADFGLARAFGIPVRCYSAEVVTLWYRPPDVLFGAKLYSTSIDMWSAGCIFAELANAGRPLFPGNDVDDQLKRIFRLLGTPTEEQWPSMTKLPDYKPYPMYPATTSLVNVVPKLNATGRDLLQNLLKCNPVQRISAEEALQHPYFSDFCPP
Chain of Cyclin-dependent kinase 5/CDK5 activator 1 (Q15078 whole entry, further chain): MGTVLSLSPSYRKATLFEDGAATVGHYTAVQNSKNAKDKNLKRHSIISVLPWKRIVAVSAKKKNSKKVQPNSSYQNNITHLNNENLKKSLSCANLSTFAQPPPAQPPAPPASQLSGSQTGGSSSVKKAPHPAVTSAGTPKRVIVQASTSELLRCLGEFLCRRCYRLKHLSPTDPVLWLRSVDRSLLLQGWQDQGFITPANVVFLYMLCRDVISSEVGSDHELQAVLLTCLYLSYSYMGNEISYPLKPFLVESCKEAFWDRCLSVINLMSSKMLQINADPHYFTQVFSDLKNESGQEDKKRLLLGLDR

SMILES | IC50 [1] | Activity [2]
O=C(CCl)Nc1nc(Cc2nnc(SCSc3nnc(Cc4csc(NC(=O)CCl)n4)n3NC(=O)c3ccc(Cl)cc3)n2NC(=O)c2ccc(Cl)cc2)cs1 | 340 nM | Non-toxic
CC(=O)Nc1nc(Cc2nnc(SCC(=O)N/N=C/c3ccccc3)n2NC(=O)c2ccccc2)cs1 | 485 nM | Non-toxic
CC(=O)Nc1nc(Cc2nnc(SCC(=O)NNC(=O)c3ccccc3)n2NC(C)=O)cs1 | 436 nM | Non-toxic
Nn1c(CSc2nnc(Cc3csc(NC(=O)c4ccccc4)n3)n2NC(=O)c2ccc(Cl)cc2)n[nH]c1=S | 3180 nM | Non-toxic
CC(=O)Nn1c(Cc2csc(NC(=O)CCl)n2)nnc1SCC(=O)NNC(=O)c1ccccc1 | 365 nM | Non-toxic
CC(=O)Nn1c(Cc2csc(NC(=O)c3ccccc3)n2)nnc1SCC(=O)N/N=C/c1ccccc1 | 467 nM | Non-toxic
NNC(=O)CSc1nnc(Cc2csc(NC(=O)CCl)n2)n1NC(=O)c1ccccc1 | 246 nM | Non-toxic
CC(=O)NNC(=O)CSc1nnc(Cc2csc(NC(C)=O)n2)n1NC(C)=O | 384 nM | Non-toxic
Nn1c(S)nnc1Cc1csc(NCCC(=O)O)n1 | 264 nM | Non-toxic
COC(=O)CSc1nnc(Cc2csc(NC(=O)c3ccccc3)n2)n1NC(=O)c1ccccc1 | 364 nM | Non-toxic
CC(=O)Nc1nc(Cc2nnc(S)n2NC(=O)c2ccc(Cl)cc2)cs1 | 462 nM | Non-toxic
CC(=O)Nc1nc(Cc2nnc(SCC(=O)NN)n2NC(=O)c2ccccc2)cs1 | 197 nM | Non-toxic
CC(=O)Nc1nc(Cc2nnc(SCC(=O)N/N=C/c3ccccc3)n2NC(C)=O)cs1 | 463 nM | Non-toxic
CC(=O)Nc1nc(Cc2nnc(SCSc3nnc(Cc4csc(NC(C)=O)n4)n3NC(=O)c3ccc(Cl)cc3)n2NC(=O)c2ccc(Cl)cc2)cs1 | 382 nM | Non-toxic
CC(=O)NNC(=O)CSc1nnc(Cc2csc(NC(C)=O)n2)n1NC(=O)c1ccccc1 | 542 nM | Non-toxic
Nn1c(CSc2nnc(Cc3csc(NC(=O)c4ccccc4)n3)n2NC(=O)c2ccccc2)n[nH]c1=S | 4650 nM | Non-toxic
CC(=O)Nc1nc(Cc2nnc(SCC(=O)NNC(=O)CCl)n2NC(C)=O)cs1 | 476 nM | Non-toxic
Nn1c(CSc2nnc(Cc3csc(NCCC(=O)O)n3)n2NC(=O)c2ccc(Cl)cc2)n[nH]c1=S | 6650 nM | Non-toxic
CC(=O)Nn1c(Cc2csc(NCCC(=O)O)n2)nnc1SCc1nnc(S)n1N | 6410 nM | Non-toxic
CC(=O)NNC(=O)CSc1nnc(Cc2csc(NCCC(=O)O)n2)n1NC(C)=O | 463 nM | Non-toxic
CC(=O)Nc1nc(Cc2nnc(SCC(=O)NNC(=O)c3ccccc3)n2NC(=O)c2ccccc2)cs1 | 421 nM | Non-toxic
CC(=O)Nc1nc(Cc2nnc(SCc3n[nH]c(=S)n3N)n2NC(=O)c2ccc(Cl)cc2)cs1 | 7480 nM | Non-toxic
CC(=O)Nn1c(Cc2csc(NC(=O)CCl)n2)nnc1SCSc1nnc(Cc2csc(NC(=O)CCl)n2)n1NC(C)=O | 847 nM | Non-toxic
CC(=O)NNC(=O)CSc1nnc(Cc2csc(NCCC(=O)O)n2)n1NC(=O)c1ccccc1 | 472 nM | Non-toxic

SMILES | IC50 [1] | Activity [2]
O=C(CSc1nnc(Cc2csc(NC(=O)c3ccccc3)n2)n1NC(=O)c1ccc(Cl)cc1)NNC(=O)c1ccccc1 | 484 nM | Non-toxic
CC(=O)NNC(=O)CSc1nnc(Cc2csc(NC(=O)c3ccccc3)n2)n1NC(=O)c1ccc(Cl)cc1 | 340 nM | Non-toxic
O=C(O)CCNc1nc(Cc2nnc(SCC(=O)NNC(=O)c3ccccc3)n2NC(=O)c2ccc(Cl)cc2)cs1 | 268 nM | Non-toxic
CC(=O)Nc1nc(Cc2nnc(SCc3n[nH]c(=S)n3N)n2NC(=O)c2ccccc2)cs1 | 6540 nM | Non-toxic
O=C(CSc1nnc(Cc2csc(NC(=O)CCl)n2)n1NC(=O)c1ccccc1)N/N=C/c1ccccc1 | 467 nM | Non-toxic
Nn1c(CSc2nnc(Cc3csc(NC(=O)CCl)n3)n2NC(=O)c2ccc(Cl)cc2)n[nH]c1=S | 3260 nM | Non-toxic
CC(=O)Nn1c(Cc2csc(NCCC(=O)O)n2)nnc1SCC(=O)NNC(=O)CCl | 264 nM | Non-toxic
COC(=O)CSc1nnc(Cc2csc(NC(C)=O)n2)n1NC(=O)c1ccc(Cl)cc1 | 380 nM | Non-toxic
CC(=O)Nn1c(Cc2csc(NC(=O)CCl)n2)nnc1SCC(=O)NN | 201 nM | Non-toxic
CC(=O)Nn1c(S)nnc1Cc1csc(NC(=O)c2ccccc2)n1 | 614 nM | Non-toxic
COC(=O)CSc1nnc(Cc2csc(NC(=O)c3ccccc3)n2)n1NC(=O)c1ccc(Cl)cc1 | 290 nM | Non-toxic
N#CCSc1nnc(Cc2csc(NC(=O)CCl)n2)n1NC(=O)c1ccccc1 | 657 nM | Non-toxic
CC(=O)Nn1c(Cc2csc(NCCC(=O)O)n2)nnc1SCSc1nnc(Cc2csc(NCCC(=O)O)n2)n1NC(C)=O | 743 nM | Non-toxic
Nn1c(CSc2nnc(Cc3csc(NCCC(=O)O)n3)n2NC(=O)c2ccccc2)n[nH]c1=S | 4780 nM | Non-toxic
CC(=O)NNC(=O)CSc1nnc(Cc2csc(NC(C)=O)n2)n1NC(=O)c1ccc(Cl)cc1 | 641 nM | Non-toxic
O=C(O)CCNc1nc(Cc2n[nH]c(=S)n2NC(=O)c2ccc(Cl)cc2)cs1 | 462 nM | Non-toxic
CC(=O)Nc1nc(Cc2nnc(SCC(=O)NNC(=O)CCl)n2NC(=O)c2ccccc2)cs1 | 643 nM | Non-toxic
O=C(O)CCNc1nc(Cc2nnc(SCC(=O)NNC(=O)c3ccccc3)n2NC(=O)c2ccccc2)cs1 | 432 nM | Non-toxic
O=C(Nc1nc(Cc2nnc(S)n2NC(=O)c2ccc(Cl)cc2)cs1)c1ccccc1 | 186 nM | Non-toxic
O=C(CSc1nnc(Cc2csc(NC(=O)CCl)n2)n1NC(=O)c1ccccc1)NNC(=O)c1ccccc1 | 467 nM | Non-toxic
O=C(O)CCNc1nc(Cc2nnc(SCC(=O)N/N=C/c3ccccc3)n2NC(=O)c2ccc(Cl)cc2)cs1 | 238 nM | Non-toxic
N#CCSc1nnc(Cc2csc(NCCC(=O)O)n2)n1NC(=O)c1ccc(Cl)cc1 | 426 nM | Non-toxic
O=C(CCl)NNC(=O)CSc1nnc(Cc2csc(NC(=O)CCl)n2)n1NC(=O)c1ccc(Cl)cc1 | 224 nM | Non-toxic
COC(=O)CSc1nnc(Cc2csc(NCCC(=O)O)n2)n1NC(=O)c1ccccc1 | 648 nM | Non-toxic

SMILES | IC50 [1] | Activity [2]
CC(=O)NNC(=O)CSc1nnc(Cc2csc(NC(=O)c3ccccc3)n2)n1NC(=O)c1ccccc1 | 564 nM | Non-toxic
CC(=O)NNC(=O)CSc1nnc(Cc2csc(NC(=O)CCl)n2)n1NC(=O)c1ccc(Cl)cc1 | 464 nM | Non-toxic
O=C(CCl)Nc1nc(Cc2n[nH]c(=S)n2NC(=O)c2ccccc2)cs1 | 761 nM | Non-toxic
O=C(O)CCNc1nc(Cc2nnc(SCC(=O)NNC(=O)CCl)n2NC(=O)c2ccccc2)cs1 | 462 nM | Non-toxic
COC(=O)CSc1nnc(Cc2csc(NCCC(=O)O)n2)n1NC(C)=O | 746 nM | Non-toxic
CC(=O)NNC(=O)CSc1nnc(Cc2csc(NCCC(=O)O)n2)n1NC(=O)c1ccc(Cl)cc1 | 352 nM | Non-toxic
O=C(CSc1nnc(Cc2csc(NC(=O)c3ccccc3)n2)n1NC(=O)c1ccccc1)N/N=C/c1ccccc1 | 496 nM | Non-toxic
CC(=O)Nn1c(Cc2csc(NC(=O)c3ccccc3)n2)nnc1SCSc1nnc(Cc2csc(NC(=O)c3ccccc3)n2)n1NC(C)=O | 764 nM | Non-toxic
NNC(=O)CSc1nnc(Cc2csc(NC(=O)c3ccccc3)n2)n1NC(=O)c1ccccc1 | 268 nM | Non-toxic
N#CCSc1nnc(Cc2csc(NCCC(=O)O)n2)n1NC(=O)c1ccccc1 | 487 nM | Non-toxic
O=C(CSc1nnc(Cc2csc(NC(=O)c3ccccc3)n2)n1NC(=O)c1ccccc1)NNC(=O)c1ccccc1 | 463 nM | Non-toxic
O=C(O)CCNc1nc(Cc2nnc(SCSc3nnc(Cc4csc(NCCC(=O)O)n4)n3NC(=O)c3ccc(Cl)cc3)n2NC(=O)c2ccc(Cl)cc2)cs1 | 168 nM | Non-toxic
O=C(Nc1nc(Cc2n[nH]c(=S)n2NC(=O)c2ccccc2)cs1)c1ccccc1 | 894 nM | Non-toxic
CC(=O)Nn1c(Cc2csc(NCCC(=O)O)n2)n[nH]c1=S | 436 nM | Non-toxic
COC(=O)CSc1nnc(Cc2csc(NC(C)=O)n2)n1NC(C)=O | 467 nM | Non-toxic
CC(=O)Nc1nc(Cc2nnc(SCC(=O)NNC(=O)c3ccccc3)n2NC(=O)c2ccc(Cl)cc2)cs1 | 534 nM | Non-toxic
CC(=O)Nc1nc(Cc2nnc(SCSc3nnc(Cc4csc(NC(C)=O)n4)n3NC(C)=O)n2NC(C)=O)cs1 | 847 nM | Non-toxic
COC(=O)CSc1nnc(Cc2csc(NC(=O)CCl)n2)n1NC(C)=O | 695 nM | Non-toxic
CC(=O)Nc1nc(Cc2nnc(SCC#N)n2NC(C)=O)cs1 | 463 nM | Non-toxic
COC(=O)CSc1nnc(Cc2csc(NC(=O)c3ccccc3)n2)n1NC(C)=O | 598 nM | Non-toxic
CC(=O)Nn1c(Cc2csc(NCCC(=O)O)n2)nnc1SCC#N | 641 nM | Non-toxic
CC(=O)Nn1c(Cc2csc(NC(=O)CCl)n2)nnc1SCc1nnc(S)n1N | 4640 nM | Non-toxic
